# From paper PMC8341946, “Wheat pathogen Zymoseptoria tritici N-myristoyltransferase inhibitors: on-target antifungal activity and an unusual metabolic defense mechanism” (RSC Chemical Biology, 2020)
# “Also recorded” adds a separate entry of the source. Read-outs that look alike come from different tables or passages of the source.
# Legend:
# [1] = molecular target: T1, ZtNMTΔ99 (Zymoseptoria tritici, UniProt F9XBB7); assay: ZtNMT IC50 assay (CPM, enzymatic); type: biochemical
# Excerpt: As the peptide substrate we used an octapeptide derived from the N-terminus of F9X1I2 (Z. tritici predicted homolog of ADP-ribosylation factor 1, ARF1), which we hypothesized would be natively myristoylated in vivo.
# Fig. 1 ZtNMT enzymatic activity and structure. […] The CPM reagent enables fluorogenic readout of the reaction rate based on the generation of coenzyme A thiol. […] (D) ZtNMT homology model generated using Swiss Model[26] based on a reported A. fumigatus NMT X-Ray structure 4UWI[27] was aligned to HsNMT1 (PDB: 5MU6, in transparent grey). […] (E) A map of ligand interactions between docked IMP-1088 and its induced fit generated ZtNMT receptor protein residues.
# The assay was adapted from a previous publication.[25] […] Accumulation of fluorescence signal at 470 nm was measured at one-minute intervals during the first 20 minutes of the reaction. Rates of the enzymatic reaction were calculated from the linear range of the resulting fluorescence over time curve using GraphPad Prizm 5. Then, sigmoidal dose–response (variable curve) fitting was applied to the data to obtain IC50 values. The assay was performed with at least 2 replicates, mean and confidence intervals are reported.
# [2] = system: HsNMT1; conditions: cited from earlier work; for IC50: Table S1, ref SI refs 1-7 as given with each inhibitor name; for Ki: Table S1, cells marked (Ki), ref SI refs 3, 5, 6 as given with each inhibitor name, read-out: HsNMT1 IC50 (µM), value marked (Ki)
# [3] = system: Z. tritici; assay: Anti-proliferative EC50 assay (MTS viability); type: cell-based, Zymoseptoria tritici
# [4] = molecular target: T1, ZtNMTΔ99; type: biochemical; conditions: in the presence of 32 μM myristoyl-CoA; read-out: KM(peptide)
# Protocol: ZtNMT characterization. KM and Vmax constants measurements were performed at two
# ZtNMT concentrations: 100 ng/ml and 200 ng/ml.
# B) ZtARF1 Km and Vmax measured
# The kinetic constants for both NMT substrates in
# [5] = system: NMT activity in live Z. tritici; assay: YnMyr tagging in live Z. tritici, in-gel fluorescence
# Protocol: Fig. 2 Inhibition and assessment of myristoylation in vivo. (A) Generalized workflow for identification and quantification of myristoylated proteins. Cells were treated with YnMyr in culture, and cell lysates ligated to multifunctional reagents bearing a TAMRA dye for fluorescent in-gel imaging and/or biotin for affinity enrichment and analysis by proteomics.
# YnMyr was used to measure the effect of inhibitor on NMT activity in live Z. tritici.
# [6] = system: Z. tritici whole proteome; assay: TMT-based proteomics of the whole lysate after NMT inhibition; type: cell-based, Zymoseptoria tritici; conditions: 8-64 μM, 4 h
# Protocol: These changes reflect the acute response mounted by the fungus in response to compound and are relatively substantial considering that they occur following only 4 hours of inhibitor treatment. Limited annotation of Z. tritici genes[43] prompted us to undertake an in-depth analysis using NCBI BLAST+[39] to find closest homologs in S. cerevisiae, one of the most well-annotated yeast genomes available. We performed the search filtering out poor alignment matches (e-value > 0.01) and selected a single best match in the S. cerevisiae proteome for each Z. tritici protein.
# Fig. 3 Response of Z. tritici to treatment with NMT inhibitors. […] Data is normalized by subtraction of the row mean values. (B) GO biological process and KEGG term enrichments using Fisher's exact test applied to proteins in Cluster W. (C) GO biological process term enrichments from Fisher's exact test applied to proteins in Cluster Z. GO annotation were assigned to Z. tritici proteins based on S. cerevisiae homolog (BLAST analysis) terms.
# 0.8 mg of each of the TMTsixplex™ Isobaric labels was dissolved in 41 μl anhydrous acetonitrile and then 8 μl of the solution of a reagent was added to 30 μl of corresponding peptide solution to start the labelling reaction. The solution was stirred at room temperature for 1.5 h. […]
# [7] = system: Z. tritici myristoylated proteome; assay: TMT-based proteomics of myristate enriched proteins after NMT inhibition; type: cell-based, Zymoseptoria tritici
# [8] = molecular target: HsNMT1; parameters: method as in PMID 29760414; conditions: estimated; cited from earlier work
# [9] = system: Z. tritici culture; assay: Z. tritici culture viability after 4 h treatment (microscope); type: cell-based, Zymoseptoria tritici; conditions: for effect on cell viability: 4 h treatment, logarithmic growth phase; for culture phenotype under microscope: 4 h
# [10] = Table S1, enzymatic CPM assay, read-out: IC50
# [11] = Table S1, viability MTS assay, read-out: EC50
# T1 sequence (F9XBB7 entry or part of it, stated change not applied): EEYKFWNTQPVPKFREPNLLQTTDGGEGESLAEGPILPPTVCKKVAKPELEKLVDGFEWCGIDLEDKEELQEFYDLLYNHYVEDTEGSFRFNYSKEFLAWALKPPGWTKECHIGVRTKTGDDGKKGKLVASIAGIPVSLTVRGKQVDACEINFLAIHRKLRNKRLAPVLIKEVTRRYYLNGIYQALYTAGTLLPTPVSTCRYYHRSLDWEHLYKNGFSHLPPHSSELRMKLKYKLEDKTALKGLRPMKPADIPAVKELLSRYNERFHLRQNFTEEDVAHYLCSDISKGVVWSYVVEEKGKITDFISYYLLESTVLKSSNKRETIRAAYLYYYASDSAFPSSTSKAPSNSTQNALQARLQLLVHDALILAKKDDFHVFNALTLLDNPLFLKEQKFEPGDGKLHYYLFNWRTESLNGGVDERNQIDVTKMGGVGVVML
Compound,"IC50 [1, 10] [nM]",IC50 [2] [nM],also measured
CNCc1cnc2ccc(-c3ccc(F)cc3OCCc3c(C#N)nn(C)c3C)cn12 [IMP-1195],< 1,< 1,–
COc1cc(CCOC(=O)c2sc3ccccc3c2OC2CCNCC2)cc(OC)c1 [IMP-277],> 300000,–,Ki [2]: 0.031 µM
CNCc1nnc2ccc(-c3ncccc3OCCc3c(C)nn(C)c3C)cn12 [IMP-1093],> 300000,7390,–
CNCc1nn(C)c2ccc(-c3cccc(F)c3OCCc3c(C)nn(C)c3C)cc12 [IMP-1036],30,16,–
"Cc1nn(C)c(C)c1NS(=O)(=O)c1c(Cl)cc(-c2ccnc(N3CCNCC3)c2)cc1Cl [IMP-366, reference compound]",–,–,"IC50 [1]: 50 nM; EC50 ([3]; Zymoseptoria tritici, Table S1, viability MTS assay): 110000 nM"
Cc1nn(C)c(C)c1CCOc1c(F)cccc1-c1ccc2c(c1)c(CN)nn2C [IMP-1034],32,5,–
Cc1nn(C)c(C)c1CCOc1cc(F)ccc1-c1ccc2nnc(C3CNC3)n2c1 [IMP-1091],2100,56,–
CNCc1nnc2ccc(-c3ccc(F)cc3OCCc3c(C(=O)N4CCCC4)nn(C)c3C)cn12 [IMP-1112],420,19.8,–
Cc1nn(C)c(C)c1Cc1nnc(-c2cc(Cl)ccc2OC2CCNCC2)o1 [IMP-329],870,–,"EC50 [3, 11]: 280000 nM; Ki [2]: 0.02 µM"
CNCc1nn(C)c2ccc(-c3ccc(F)c(F)c3OCCc3c(C)nn(C)c3C)cc12 [IMP-1089],6.7,< 1,"EC50 [3, 11]: 46000 nM"
Cc1c(CCOc2cc(F)ccc2-c2ccc3nnc(C4CNC4)n3c2)c(C(=O)N(C)C)nn1C [IMP-1100],16,1,"EC50 [3, 11]: > 500000 nM"
Cc1nn(C)c(C)c1CCOc1cc(F)ccc1-c1ccc2[nH]nc(CN(C)C)c2c1 [IMP-917],160,13,–
Cc1c(CCOc2cc(F)ccc2-c2ccc3ncc(CN(C)C)n3c2)c(C(=O)N(C)C)nn1C [IMP-1134],< 1,< 1,"EC50 [3, 11]: 27000 nM"
CNCCc1cnc2ccc(-c3ccc(F)cc3OCCc3c(CO)nn(C)c3C)cn12 [IMP-1185],4000,25.8,–
CNCc1cnc2ccc(-c3ccc(F)cc3OCCc3c(C)nn(C)c3C)cn12 [IMP-1097],200,1.9,–
CNCc1cnc2ccc(-c3ccc(F)cc3OCCc3c(C(N)=O)nn(C)c3C)cn12 [IMP-1179],280,5.6,–
"NH2-GLTFSKLF-OH (H-GLTFSKLF-OH) [ZtARF1 peptide, octapeptide substrate derived from the N-terminus of F9X1I2 (Z. tritici ARF1 homolog)]",–,–,Km [4]: 2.73 µM
Cc1nn(C)c(C)c1CCOc1c(-c2ccc3c(c2)c(CN(C)C)nn3C)ccc(F)c1F [IMP-1088],–,< 1,"TC50 (half maximal concentration of YnMyr tagging) ([5]; 4 h, intensity of most prominent band (ca. 20 kDa), in-gel fluorescence): 14000 ± 1000 nM; effect on YnMyr labeling (in-gel band intensities) ([5]; 4 h with compound and YnMyr, TAMRA fluorescence): dose-dependently reduces labeling; also recorded: reduced YnMyr tagging; whole proteome response [6]: significant dose-dependent changes in the expression of multiple proteins; IC50 [1]: 12 nM; YnMyr tagging of myristoylated proteins ([7]; 64 μM versus DMSO, 4 h): reduced tagging; TC50 (concentration of half-tagging with YnMyr) ([7]; first subset of myristoylated proteins in Cluster 1): 8000 to 16000 nM; TC50 (concentration of half-tagging with YnMyr) ([7]; second subset of myristoylated proteins in Cluster 1): 16000 to 32000 nM; TC50 (concentration of half-tagging with YnMyr) ([7]; third subset of myristoylated proteins in Cluster 1): 32000 to 64000 nM; EC50 ([3]; Fig. 1B, Z. tritici cell viability, MTS, 40 h): 23000 nM; EC50 ([3]; Zymoseptoria tritici, 40 h, Fig. 1B, Z. tritici cell viability, MTS): ~20000 nM; Kd [8]: < 0.2 nM; effect on cell viability [9]: no detectable effect on cell viability"
CNCc1nnc2ccc(-c3ccc(F)cc3OCCc3c(C(=O)N(C)C)nn(C)c3C)cn12 [IMP-1094],86,7,–
N[C@H](CC(=O)N1C[C@H](CO)[C@@H](c2ccc(Cl)c(NC(=O)Cc3ccc(F)cc3)c2)C1)Cc1ccc(Cl)cc1 [IMP-162],–,–,"IC50 [1]: 1900 nM; EC50 ([3]; Zymoseptoria tritici, Fig. 1B, Z. tritici cell viability, MTS, 40 h, read-out: EC50): ~20000 nM; EC50 ([3]; Zymoseptoria tritici, Table S1, viability MTS assay, read-out: EC50): 18000 nM; culture phenotype under microscope ([9]; 24 μM and 48 μM): phenotype consistent with cell death; culture phenotype under microscope ([9]; 96 μM): most cells appear dead; effect on cell viability [9]: kill Z. tritici culture"
CNCCc1cnc2ccc(-c3ccc(F)cc3OCCc3c(C(=O)N(C)C)nn(C)c3C)cn12 [IMP-1124],13,0.7,–
Cc1nn(C)c(C)c1CCOc1c(F)cccc1-c1ccc2c(c1)c(CN(C)C)nn2C [IMP-1031],16,4.6,"EC50 [3, 11]: 51000 nM"
Cc1nn(C)c(C)c1CCOc1cc(F)ccc1-c1ccc2nnc(C3CCCN3)n2c1 (stereo not drawn) [IMP-1090],22000,2590,–
CNCc1nnc2ccc(-c3ccc(F)cc3OCCc3c(C(F)(F)F)nn(C)c3C)cn12 [IMP-1111],700,6.5,–
Cc1nn(C)c(C)c1CCOc1c(F)cccc1-c1ccc2ncc(CN(C)C)n2c1 [IMP-1131],2400,2.4,–
